Experimental data taken from patent US20260272879A1, “ANION-BINDING AROMATIC OLIGOAMIDE MACROCYCLES AND METHODS OF MAKING AND USING SAME” (The Research Foundation for The State University of New York, priority 2023, published 2026).
Read-outs that look alike come from different tables or passages of the source.

Columns and labels:
[1] = Isothermal titration calorimetry (ITC), Br^−; format: binding; settings: 25° C.
Experimental: (§1) Isothermal titration calorimetry (ITC) experiments were performed using a MicroCal VP-ITC. ITC experiments were conducted by adding ~1.5 mL of a solution containing c5a to the sample cell. Followed by titrating 10 μL aliquots of a solution containing the corresponding TBA·X salt (~10-14× concentration of c5a solution) from the syringe into the sample cell. Heats of dilution were obtained by titrating 10 μL aliquots of the TBA·X solution from the syringe into the sample cell in the absence of c5a. The heats of dilution were subtracted from the raw data. ITC data processing and curve fitting was done using the Origin program (MicroCal).
(§2) Two-step competition ITC experiments for determining the Ka of c5a and iodide. In CH3CN:CHCl3 (5:95, v/v), the binding affinity of c5a for I^− was too high to be determined with direct NMR or ITC titration. Instead, two-step competition ITC experiments with Cl^− as the competitor were performed.

[2] = Isothermal titration calorimetry (ITC), ClO4^−; format: binding; settings: 25° C.
Experimental: as §1, §2

[3] = EC50 of halide transport, HPTS assay; format: biochemical; settings: POPC LUVs, entrapped HPTS
Experimental: The time course of the emission intensity of intravesicular HPTS, It, was obtained first by ratiometric analysis (Rt=It,450/It,405), followed by normalization according to equation (S1),
where R0=Rt at t=100 s, before the addition of c5a; R∞=Rt at t=350 s upon the addition of Triton X-100. Normalized intensity ratio at 300 s just before addition of Triton X-100 was defined as the transmembrane activity (Y) which was analyzed with the Hill equation (S2) to give effective concentration EC50 and the Hill coefficient n, (S2)
where Y0 is Y in absence of carrier, […], and c is the carrier concentration in a cuvette.

[4] = Carrier vs channel chloride transport with DPPC LUVs; format: biochemical; settings: HPTS
Experimental: Differentiation of carrier vs channel chloride transport with DPPC LUVs. An aliquot (20 μL) DPPC LUVs (intravesicular components: 10 mM HEPES, 100 mM NaCl, pH 7.0) was added to 1.98 mL of a buffer comprised of 10 mM HEPES, 100 mM NaCl, pH 7, followed by incubating at 45° C. for 3 min. An aliquot (20 μL) of c5a (0.2 mM) in DMF was added to the LUVs, with the final concentration of c5a being […], and the solution was incubated for an additional 3 min at 45° C. LUVs with c5a were incubated either at 45° C. or 25° C. for 3 minutes.

CCCCCCCCOCC(C)(C)C(=O)Nc1ccc2cc1C(=O)Nc1ccc(NC(=O)C(C)(C)COCCCCCCCC)c(c1)C(=O)Nc1ccc(NC(=O)C(C)(C)COCCCCCCCC)c(c1)C(=O)Nc1ccc(NC(=O)C(C)(C)COCCCCCCCC)c(c1)C(=O)Nc1ccc(NC(=O)C(C)(C)COCCCCCCCC)c(c1)C(=O)N2 [c5a]
Association constant Ka, 1:1 complex with Br^− ([1]; CH3CN:CHCl3 (5:95, v/v)): (1.79 ± 0.34) × 10^7 M^−1
Association constant Ka, 1:1 complex with Br^− ([1]; DMSO:CHCl3 (5:95, v/v)): (1.37 ± 0.04) × 10^4 M^−1
Association constant Ka, 1:1 complex with ClO4^− ([2]; DMSO-d6:CDCl3 (15:85, v/v) column, ITC measurements (footnote d)): (1.90 ± 0.02) × 10^4 ^d M^−1
Association constant Ka, 1:1 complex with ClO4^− ([2]; DMSO:CHCl3 (5:95, v/v), ITC): (4.50 ± 0.50) × 10^5 M^−1
EC50 ([3]; c5a 0.05 to 10 μM, base pulse, read-out: EC50 for the transport of Br^−): 4.11 µM
EC50 ([3]; c5a 0.05 to 10 μM, base pulse, read-out: EC50 for the transport of Cl^−): 0.31 µM
EC50 ([3]; c5a up to 10 μM, too large to be measured, read-out: EC50 for the transport of I^−): > 10 µM
chloride transport into DPPC LUVs ([4]; 25° C. (gel phase), c5a pre-incubated at 45° C.): completely prohibited
chloride transport into DPPC LUVs ([4]; 45° C. (fluid phase)): enhanced halide transport
